This note sets out measurements from US20120190580A1, “TREATMENT OF PATIENTS AFTER STENT IMPLANTATION OR BALLOON DILATATION AND DRUG ELUTING STENTS” (MAX-PLANCK-GESELLSCHAFT ZUR FORDERUNG DER WISSENSCHAFTEN …, priority 2009, published 2012).

Each structure is given as a SMILES string.

The test system of the test is arteries of KO mice. Description: Morphological analysis of arteries after chronic treatment. In kind it is in vivo, mouse. The note with it: 20 days treatment. From the text: A 129S7AB2.2 genomic BAC clone (bMQ-446B20; Sanger) was used to generate the targeting vector. Recombination in SW102 cell was employed to replace the miR-143 to miR-145 genomic region by a galK cassette (45) that was amplified by the primers flanking premiR-143 to pre-miR-145 ([…] GCggcgcgcctcagcactgtcctgctcctt; […] ACggcgcgcctgttgacaattaatcatcggca). The genomic sequence was inserted via gap repair into a pKO targeting vector containing a DTA expression cassette and 450 bp homology arms for BAC recombination resulting in a vector containing 6.5 kb of sequence 5′ of miR-143 and 5.5 kb 3′ of miR-145 from genomic sequence […] to […]. The AscI restriction sites flanking the galK cassette were used to replace the galK by a floxed IRESIacZ-NeoR cassette. […]
Arteries were perfused using a PBS solution via the heart apex at 100 mmHg pressure for 2 min, followed by perfusion with 4% paraformaldehyde in PBS. […] Ultra-thin sections were stained with uranyl acetate and lead citrate, viewed and photographically recorded using a Philips CM 10 electron microscope. The phenotype of VSMC was determined ultrastructurally following criteria as previously reported (47). […] The phenotype of VSMC in each mouse was quantified in at least 300 cells per 3 arterial segments (minimum 100 μm) using consecutive transversal sections. […]

For `CCCCc1nc(Cl)c(CO)n1Cc1ccc(-c2ccccc2-c2nn[nH]n2)cc1` [losartan], the “significant morphological changes in arteries” value is reported as “not observed”.
As for `C[C@H](CS)C(=O)N1CCC[C@H]1C(=O)O` [captopril], the “significant morphological changes in arteries” value is given as “not observed”.
